Where “and” joins values, the source holds several entries; their conditions need not be identical. Equal values may be shown once. Entries after “also recorded” stand apart in the source; their conditions may differ.
Experiments:
nurse sharks [1] = experiment: Tonic immobility, Bite Assay; assay type: in vivo, C. cirratum
Protocol: One bioassay used to observe and measure flight response is the tonic immobility test. Tonic immobility is a state of paralysis that typically occurs when a shark is subject to inversion of its body along the longitudinal axis. This state is called “tonic,” and the shark can remain in this state for up to 15 minutes thereby allowing researchers to observe effects of chemical repellents. The “tonic” state of the shark is first established by releasing seawater in proximity to the “tonic” shark with the same delivery instrument and at the same distance as a “test” repellent compound will be released. Some controls are released with a high flow rate (30 mL/sec) in order to establish that sharks are not awakened by a jet of fluid over their noses. Once behavioral controls are established, a compound or composition that may have a repelling effect is delivered to the shark. […] Using this tonic immobility bioassay researches can quantify the strength of a repellent effect. […]
In Bite Assays, a dose of typically less than 5 mL of 3-methylbutanal was presented directly into the shark's mouth using a pipette. […] Because the delivery was directly into the shark's mouth and responses were generally observed immediately upon delivery, time to response was not recorded.

[2] = tested on: Caribbean reef and blacknose sharks; experiment: Cloud Dispersion Assay on competitively feeding sharks; assay type: in vivo, C. perezii, C. acronotus; details: 290 microliters
Description: Another bioassay used to observe a flight response in sharks is a cloud dispersion assay on competitively feeding population of sharks. This assay is referred to as a “Cloud Dispersion Assay” or “Cloud Assay.” A pressurized fluid delivery system was designed to deliver repellent into large feeding populations of sharks. The repellent is released as a subsurface cloud, which follows the current. A 1 L plastic container containing the test chemical repellent solution is pressurized to approximately 20 psig with a battery compressor or hand pump. A globe valve is used to hold back the fluid. The fluid is delivered to the end of a long PVC pole using a Teflon tubing. This allows the operator to place the tip of the pole well into a population of feeding sharks. By actuating the small globe valve, a cloud of the chemical solution is released quickly and reliably into the feeding population. Controls are established using FD&C Red 40 dye and seawater, uncolored seawater, and air. These controls establish that sharks are not afraid to approach the delivery pole, nor are sharks deterred from feeding by the jet of control fluid or air.
In each assay disclosed herein, a control of sea water was performed prior to the testing of each test repellent. In the control, sea water was delivered to the shark to be tested in the same delivery manner as the test repellent was delivered. […]

[3] = tested on: sharks (lemon, nurse, blacknose, blacktip pooled); experiment: Tonic immobility, Syringe Assay, summary over species; assay type: in vivo
Protocol: (§1) One bioassay used to observe and measure flight response is the tonic immobility test. Tonic immobility is a state of paralysis that typically occurs when a shark is subject to inversion of its body along the longitudinal axis. This state is called “tonic,” and the shark can remain in this state for up to 15 minutes thereby allowing researchers to observe effects of chemical repellents. The “tonic” state of the shark is first established by releasing seawater in proximity to the “tonic” shark with the same delivery instrument and at the same distance as a “test” repellent compound will be released. Some controls are released with a high flow rate (30 mL/sec) in order to establish that sharks are not awakened by a jet of fluid over their noses. Once behavioral controls are established, a compound or composition that may have a repelling effect is delivered to the shark. If the compound or composition engenders a flight response, the shark will awaken from the tonic state and rapidly attempt to flee the delivered repellent. Using this tonic immobility bioassay researches can quantify the strength of a repellent effect.
A second delivery method called the “Syringe Assay” method delivered a dose of 60 mL or more of a test chemical repellent from at least one foot, and up to as many as five feet, from a shark. The distance of delivery was determined based on the strength of the water current in the direction of the shark. Time from delivery of the test substance until response was observed, measured and recorded. The “Syringe” method allows a researcher to observe how a diffusing and diluting cloud of test chemical repellent affects the shark's behavior when the shark encounters the delivered cloud of test substance. The “Syringe” method requires relatively large doses because of the diffusion of the cloud over time and distance. Time from delivery to response is related to the size of the bolus delivered from the syringe, distance of the shark from the syringe and water current.
In the Syringe assay about 60 mL or more of valeraldehyde was delivered from one to as many as five feet from the shark depending on the water current. […] Time from delivery to response was related to the size of the bolus delivered from the syringe, distance of the shark from the syringe and water current.

lemon sharks [4] = experiment: Tonic immobility, Hd Syringe Assay; assay type: in vivo, N. brevirostris; details: lemon; Hd syringe
Protocol: as §1
(§2) Lemon, nurse, blacktip and tiger sharks were placed in tonic immobility by inverting the shark's body along its longitudinal axis. […] The “tonic” state of each shark was first established by releasing a control of seawater in proximity to the shark with the same delivery instrument and at the same distance as the chemical repellent would later be delivered. In certain controls, sea water was released with a high flow rate (30 mL/sec) in order to establish that the sharks would not be awakened by a jet of fluid over their noses.
Once behavioral controls were established, the chemical repellent was delivered to the shark using the Hd Syringe Assay method, the Syringe 3/5/10 Assay method, the Bite Assay method or the Micropipette Assay method. […]

nurse sharks [5] = experiment: Tonic immobility, Hd Syringe Assay; assay type: in vivo, C. cirratum; details: nurse; Hd syringe
Protocol: as §1
Lemon, nurse, blacktip and tiger sharks were placed in tonic immobility by inverting the shark's body along its longitudinal axis. […]

nurse sharks [6] = experiment: Tonic immobility, Syringe 3/5/10 Assay; assay type: in vivo, C. cirratum; details: juvenile nurse sharks
blacktip sharks = experiment: Tonic immobility, Syringe 3/5/10 Assay; assay type: in vivo, C. limbatus
Protocol: as §1
In the tonic immobility studies disclosed herein, several different methods were employed for delivery of repelling compounds. A first method for delivery of chemical repellent in tonic immobility studies employed a “Syringe 3/5/10 Assay” method. The “Syringe 3/5/10 Assay” method is so named because a test repellent is delivered to a shark from a distance of about “3” inches with a bolus of about “5” mL with a response to the test repellent considered positive if the shark reacts with a change in behavior within less than about “10” seconds from the time of delivery.
The “3/5/10 Syringe Assay” as employed herein delivered a dose of 5-6 mL of a test chemical repellent from a syringe fixed with a needle having a gauge of about 22 from a distance at least 3 inches in front of a shark. Because the test chemical repellent was delivered at a distance from the shark's nares and mouth, a cloud of test chemical repellent was dispersed over the shark within the water column. The dispersed test repellent was subject to water current direction, dispersion and dilution. As a result, a flight response within 10 seconds was considered a positive repellency response. […] Time from delivery to response is related to the size of the bolus delivered from the syringe, distance of the shark from the syringe and water current.
as §2
(§3) Once behavioral controls were established, the chemical repellent was delivered to the shark using the Hd Syringe Assay method, the Syringe 3/5/10 Assay method, the Bite Assay method or the Micropipette Assay method. […] If tonic immobility was terminated, the positive response was denoted as “Y.” If tonic immobility was not terminated but a behavior change within tonic immobility was noted, such as the opening of the mouth or a cough, the response was denoted as an “R” for reduced response. If no behavior change was observed, the negative response was denoted “N.”
In Syringe 3/5/10 Assays, 5-6 mL of 3-methylbutanal was delivered at least 3 inches in front of the shark's mouth. A cloud of the repellent dispersed over the shark within the water column. […] As noted above, because the dispersion of the chemical repellent upon delivery is affected by volume of repellent, water current, and other factors, the time between delivery and response was not correlatable with the potency of the repellent. […]

tiger sharks = experiment: Tonic immobility, Syringe 3/5/10 Assay; assay type: in vivo, G. cuvieri; details: tiger shark
Protocol: as §1
In the tonic immobility studies disclosed herein, several different methods were employed for delivery of repelling compounds. A first method for delivery of chemical repellent in tonic immobility studies employed a “Syringe 3/5/10 Assay” method. […]

lemon sharks [7] = experiment: Tonic immobility, Micropipette Assay; assay type: in vivo, N. brevirostris; details: lemon / juvenile sharks; micropipette
Protocol: as §1
(§4) A fourth method of delivery was called the “Micropipette Assay” method of delivery. In this method, a very small dose (fraction of a mL) of a test substance was delivered directly into a shark's mouth. […] A response, such as a cough or other notable action of the shark, was usually noted when effective gustatory repellents were delivered directly into a shark's mouth while in tonic immobility.
(§5) The Micropipette Assay method has not proven to be a particularly effective method of assaying for a flight response in elasmobranchs. The Micropipette Assay method is, nevertheless, an excellent method for specifying that a gustatory response has occurred. It is effective for specifying a gustatory response because the micropipette delivery method allows direct delivery of an entire bolus of test substance into the mouth of the shark being tested.
Using a microliter syringe or microliter pipette, a bolus of test chemical can be directed precisely into one of the shark's nares, or its mouth. […] Olfactory repellents will terminate tonic immobility almost immediately when injected into a nare of the shark.
as §2, §3
Further because the Micropipette assays were often done serially on the same set of sharks, second and third doses of the repellent over time would be expected to evoke less of a reaction. Nevertheless, the small doses delivered to the shark in the Micropipette assay provide important data on whether a compound is a gustatory stimulant because the small dose may be delivered directly into the mouth of the shark. This eliminates any olfactory response that might be acting in concert with a gustatory response to terminate tonic immobility.

nurse sharks [8] = experiment: Tonic immobility, Micropipette Assay; assay type: in vivo, C. cirratum; details: nurse; micropipette; 270 ul
Protocol: as §1, §4
as §5, with “tested. […]” for “tested.”

lemon sharks [9] = details: Table 24; lemon shark; swab delivery

CC(=O)C(C)=O [2,3-butanedione]
Bite Y (termination of tonic immobility), trials of trials (nurse sharks [1]): terminated and 1/1
Cloud/Cage N (no response) [2]: no response and 1/1
Syringe N (no response), trials of trials [3]: 1/8
Syringe R (behavior response within tonic immobility), trials of trials [3]: behavioral response
Syringe Y (termination of tonic immobility), trials of trials [3]: seven of eight and 7/8

CCC(C=O)CC [diethylacetaldehyde]
Comments (behavior observed) (lemon sharks [4]): cough
Comments (behavior observed) (nurse sharks [5]): cough
Syringe 3/5/10 assays terminating tonic immobility (nurse sharks [6]): six of six
Syringe 3/5/10 assays terminating tonic immobility (blacktip sharks; blacktip sharks): two of four
Syringe 3/5/10 assays with behavioral response (blacktip sharks; blacktip sharks): behavioral response
Syringe 3/5/10 assays with no response (blacktip sharks; blacktip sharks): no response
Comments (behavior observed) (blacktip sharks; blacktip, syringe 3/5/10): cough/tensed
Syringe 3/5/10 assay outcome (tiger sharks): terminated
Comments (behavior observed) (lemon sharks [7]): blinked; also recorded: cough
Response (time from delivery to response) (nurse sharks [8]): 1 s

O=C(O)CCC(=O)O [succinic acid]
T? (termination of tonic immobility) (lemon sharks [9]): N

Source: patent US9456589B2, “Elasmobranch-repelling compounds and methods of use” (priority 2005, dated 2016)
